Measured values as given in patent US8410151B2, “Aminomethyl benzene derivatives” (Actelion Pharmaceuticals Ltd, priority 2009, dated 2013).

Experiments:
[1] = system: circulating lymphocytes; experiment: Assessment of in vivo efficacy: circulating lymphocytes after oral administration; set-up: species or system normotensive male Wistar rats; conditions: 3 h after oral administration of 10 mg/kg, male Wistar rats, compared to vehicle-treated group
Protocol: The efficacy of the compounds of formula (I) is assessed by measuring the circulating lymphocytes after oral administration of 3 to 30 mg/kg of a compound of formula (I) to normotensive male Wistar rats. The animals are housed in climate-controlled conditions with a 12 h-light/dark cycle, and have free access to normal rat chow and drinking water.
Blood is collected before and 3, 6 and 24 h after drug administration. Full blood is subjected to hematology using Advia Hematology system (Bayer Diagnostics, Zurich, Switzerland).
All data are presented as mean±SEM. Statistical analyses are performed by analysis of variance (ANOVA) using Statistica (StatSoft) and the Student-Newman-Keuls procedure for multiple comparisons. The null hypothesis is rejected when p<0.05.

[2] = biological target: recombinant human S1P1 receptor (Homo sapiens, UniProt P21453); experiment: GTPγS assay to determine EC50 values; format: biochemical; conditions: 35S-GTPγS binding, membrane preparations of CHO cells expressing recombinant human S1P1 receptor
Chain of recombinant human S1P1 receptor (P21453 whole entry): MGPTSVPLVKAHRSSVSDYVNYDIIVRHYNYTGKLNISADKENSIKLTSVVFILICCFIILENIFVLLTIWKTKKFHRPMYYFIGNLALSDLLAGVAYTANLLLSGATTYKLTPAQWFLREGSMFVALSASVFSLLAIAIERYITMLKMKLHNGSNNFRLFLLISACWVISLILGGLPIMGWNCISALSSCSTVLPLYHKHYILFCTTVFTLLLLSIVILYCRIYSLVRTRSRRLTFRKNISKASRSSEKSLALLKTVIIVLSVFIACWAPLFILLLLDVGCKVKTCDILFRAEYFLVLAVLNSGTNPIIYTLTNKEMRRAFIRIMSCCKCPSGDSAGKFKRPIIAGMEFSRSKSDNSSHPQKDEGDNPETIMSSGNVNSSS
Protocol: GTPγS binding assays are performed in 96 well microtiter plates (Nunc, 442587) in a final volume of 200 μl, using membrane preparations of CHO cells expressing recombinant human S1P1 receptor. Assay conditions are 20 mM Hepes (Fluka, 54461), 100 mM NaCl (Fluka, 71378), 5 mM MgCl2 (Fluka, 63064), 0.1% BSA (Calbiochem, 126609), 1 μM GDP (Sigma, G-7127), 2.5% DMSO (Fluka, 41644), 50 pM ^355-GTPγS (Amersham Biosciences, SJ1320). The pH is 7.4. Test compounds are dissolved and diluted in 100% DMSO and pre-incubated at room temperature for 30 min in 150 μl of the above assay buffer, in the absence of ^355-GTPγS. After addition of 50 μl of ^355-GTPγS, the assay is incubated for 1 h at rt. The assay is terminated by transfer of the reaction mixture to a Multiscreen plate (Millipore, MAHFC1H60) using a cell harvester from Packard Biosciences, and the plates are washed with ice-cold 10 mM Na2HPO4/NaH2PO4 (70%/30%), dried, sealed at the bottom and, after addition of 25 μl MicroScint20 (Packard Biosciences, order #6013621), sealed on the top. Membrane-bound ^35S-GTPγS is measured with a TopCount from Packard Biosciences.
EC50 is the concentration of agonist inducing 50% of the maximal specific ^35S-GTPγS binding. Specific binding is determined by subtracting non-specific binding from maximal binding. Maximal binding is the amount of cpm bound to the Multiscreen plate in the presence of 10 μM of S1P. Non-specific binding is the amount of binding in the absence of an agonist in the assay.

EC50 [2] [nM] | SMILES | Lymphocyte counts [1] [%]
2.7 | CCc1cc(-c2noc(-c3cc(C)cc(CN(C)CC)c3)n2)cc(C)c1OC[C@@H](O)CNC(=O)CO [Example 16, N—{(S)-3-[2-ethyl-4-(5-{3-[(ethyl-methyl-amino)-methyl]-5-methyl-phenyl}-[1,2,4]oxadiazol-3-yl)-6-methyl-phenoxy]-2-hydroxy-propyl}-2-hydroxy-acetamide] | −62.1
3.3 | CCCCN(C)Cc1cc(C)cc(-c2nc(-c3cc(C)c(OC[C@@H](O)CNC(=O)CO)c(CC)c3)no2)c1 [Example 18, N—{(S)-3-[4-(5-{3-[(butyl-methyl-amino)-methyl]-5-methyl-phenyl}-[1,2,4]oxadiazol-3-yl)-2-ethyl-6-methyl-phenoxy]-2-hydroxy-propyl}-2-hydroxy-acetamide] | −63.0
7 | CCc1cc(-c2noc(-c3cc(C)cc(CN4CCCC4)c3)n2)cc(C)c1OC[C@@H](O)CNC(=O)CO [Example 22, N—((S)-3-{2-ethyl-6-methyl-4-[5-(3-methyl-5-pyrrolidin-1-ylmethyl-phenyl)-[1,2,4]oxadiazol-3-yl]-phenoxy}-2-hydroxy-propyl)-2-hydroxy-acetamide] | −61.0
 | CCc1cc(-c2nc(-c3cc(C)c(OC[C@@H](O)CNC(=O)CO)c(CC)c3)no2)ccc1CN(C)C [Example 99, N—((S)-3-{4-[5-(4-dimethylaminomethyl-3-ethyl-phenyl)-[1,2,4]oxadiazol-3-yl]-2-ethyl-6-methyl-phenoxy}-2-hydroxy-propyl)-2-hydroxy-acetamide] | −61.0
